Experimental data published in patent US20240277730A1, “SUPPRESSION OF COVID-19 REPLICATION BY COVID-19 ENTRY INHIBITORS” (Board of Regents of the University of Nebraska, priority 2021, published 2024).
“And” between values parts separate entries of the source, which are not always exact repeats. Identical values can stand only once. “Also recorded” adds a separate entry of the source.

What was measured:
SARS-COV-2 [1] = type: cell-based
Hu-1 S-RBD = Hu-1 S-RBD (Severe acute respiratory syndrome coronavirus 2, UniProt P0DTC2); experiment: microscale thermophoresis (MST), S-RBD alone; type: binding, SARS-COV-2
[2] = MTT cell viability assay, HEK293T-hACE2; type: cell-based; conditions: human, HEK293T-hACE2 cells
Experimental: (§1) The MTT cell viability assay of the preferred embodiment utilized HEK-293T-hACE2. UNCN1T. Vero-STAT1 knockout, and Calu-3 cells seeded at the density of 20,000 cells/well in a 96-well plate containing 100 μl complete media specific for each cell type. Cells were incubated for 12 h at 37° C., in a humidified 5% CO2 incubator for adherence. After 12-h incubation, the media was replaced with fresh media, and HEK-293T-hACE2 cells were treated with the five compounds at concentrations ranging between 0.001 to 100 μM. The Calu-3. […] Untreated cells were considered a negative control, and DMSO treated cells were considered vehicle controls. After the treatment, cells were incubated at 37° C., in humidified 5% CO2 incubator. Seventy-two hour posttreatment. 20 μl of MTT substrate (5 mg/ml) was added to each well and incubated for 4 additional hours at 37° C., in the dark. Then the culture media was carefully removed, and blue formazan crystals were dissolved in 200 μl of DMSO, and the purple color was read at 595 nm with a reference filter of 620 nm.

in vitro = type: cell-based; conditions: African green monkey, Vero-STAT1 knockout cells, MTT
Experimental: as §1

[3] = MTT cell viability assay, UNCN1T; type: cell-based; conditions: human, UNCN1T cells
Experimental: as §1

[4] = MTT cell viability assay, Calu-3; type: cell-based; conditions: human, Calu-3 cells
Experimental: as §1

[5] = tested on: pseudotyped lentiviral particles expressing Spike glycoprotein of SARS-COV-2; experiment: microbe, parasite or virus in culture; type: cell-based
SARS-COV-2 [6] = type: cell-based; remark: listed apart in the source
[7] = biological target: ACE2: SARS-COV-2 Spike RBD (Homo sapiens, UniProt Q9BYF1); experiment: ACE2: SARS-COV-2 Spike RBD inhibitor screening assay (ELISA kit); set-up: species or system SARS-COV-2 / human; conditions: tested 0.25 to 5 μM in triplicate; read-out: IC50, inhibition of binding of SARS-COV-2 Spike RBD to ACE2
SARS-COV-2 [8] = experiment: antiviral activity against live SARS-COV-2 in UNCN1T cells (RT-qPCR); type: cell-based; conditions: read-out: IC50, inhibition of SARS-COV-2 replication
SARS-COV-2 [9] = experiment: microbe, parasite or virus in culture; type: cell-based; conditions: read-out: IC50, inhibition of SARS-COV-2 replication
[10] = Severe acute respiratory syndrome coronavirus 2

Chain of ACE2: SARS-COV-2 Spike RBD (Q9BYF1 18-740): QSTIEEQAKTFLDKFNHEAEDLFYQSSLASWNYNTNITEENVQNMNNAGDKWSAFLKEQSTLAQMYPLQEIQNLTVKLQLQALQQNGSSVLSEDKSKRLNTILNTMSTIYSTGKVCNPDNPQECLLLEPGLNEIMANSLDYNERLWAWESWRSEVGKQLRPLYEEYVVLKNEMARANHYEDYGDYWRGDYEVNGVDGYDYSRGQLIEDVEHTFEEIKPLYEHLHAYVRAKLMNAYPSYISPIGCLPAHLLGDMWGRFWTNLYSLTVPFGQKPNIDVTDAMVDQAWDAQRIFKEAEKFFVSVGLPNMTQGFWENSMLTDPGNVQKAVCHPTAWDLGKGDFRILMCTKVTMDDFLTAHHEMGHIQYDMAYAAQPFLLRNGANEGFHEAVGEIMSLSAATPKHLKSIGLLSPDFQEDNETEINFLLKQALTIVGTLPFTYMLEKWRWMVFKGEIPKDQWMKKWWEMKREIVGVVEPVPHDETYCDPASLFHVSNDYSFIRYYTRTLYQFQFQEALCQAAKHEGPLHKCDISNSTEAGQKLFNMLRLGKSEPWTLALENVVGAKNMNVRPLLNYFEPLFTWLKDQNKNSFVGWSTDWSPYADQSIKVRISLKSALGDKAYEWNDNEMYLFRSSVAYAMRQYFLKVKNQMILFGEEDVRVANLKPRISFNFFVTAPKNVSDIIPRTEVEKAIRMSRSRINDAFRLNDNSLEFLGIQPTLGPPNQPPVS

Compound | CC50 at 72 h [2] [µM] | CC50 at 72 h (in vitro) [µM] | CC50 at 72 h [3] [µM] | CC50 at 72 h [4] [µM] | pseudotype viral entry inhibition [5] | SARS-COV-2 infection compared with vehicle controls (SARS-COV-2 [6]) | reduction in SARS-COV-2 infectivity (SARS-COV-2 [6]) [%] | IC50 [7] | also measured
CCC(CC)COC(=O)[C@H](C)N[P@](=O)(OC[C@H]1O[C@@](C#N)(c2ccc3c(N)ncnn23)[C@H](O)[C@@H]1O)Oc1ccccc1 [RDV, remdesivir] | – | – | – | – | – | – | – | – | reduction in dosages in RDV/formula (IIa) combination (SARS-COV-2 [1]): ≥ 2.3 fold
O=C1Nc2cc(C(F)(F)F)ccc2Oc2ccsc21 [formula (IIa), 7-(trifluoromethyl)benzo[b]-thieno[2,3-f][1,4]oxazepin-10(9H)-one] | > 100 | 7.13 | > 100 | > 100 | significant and robust viral entry inhibition | no significant difference | ~40 | – | binding to S-RBD alone (Hu-1 S-RBD): does not binding; also recorded: does not bind; IC50 ([5]; Severe acute respiratory syndrome coronavirus 2, 48 h, read-out: IC50, inhibition of entry of pseudotyped lentiviral particles): 0.84 µM
CN1C(=O)c2ccccc2[S+]([O-])c2cc([N+](=O)[O-])ccc2S1(=O)=O (stereo not shown) [formula (Ia), 6-methyl-2-nitrodibenzo[d,g]-[1,6,2]dithiazocin-7(6H)-one 5,5, 12-trioxide] | > 100 | 6.21 | > 100 | > 100 | low level of viral entry inhibition | no significant difference | ~40 | < 0.25 µM and ≥ 0.25 µM | IC50 (SARS-COV-2 [8]; [10]): 0.67 µM; IC50 (SARS-COV-2 [8]): 1.16 µM; IC50 (SARS-COV-2 [9]; [10]): 5.35 µM; IC50 (SARS-COV-2 [9]): 2.94 µM
CCn1c(SCC(=O)N2CCCc3ccccc32)nnc1-c1cccs1 [formula (V), 1-(3,4-dihydroquinolin-1(2H)-yl)-2-((4-ethyl-5-(thiophen-2-yl)-4H-1,2,4-triazol-3-yl)lhio)elhanone] | > 100 | – | – | – | – | – | – | 1.91 µM | –
OC(CNCCNc1ncccc1C(F)(F)F)Cn1ccc2ccccc21 (stereo not shown) [formula (VI), 1-(1H-indol-1-yl)-3-((2-((3-(trifluoromethyl)pyridin-2-yl)amino)ethyl)amino)-propan-2-ol] | > 100 | – | – | – | – | – | – | > 5 µM | –
CN(C)/C=C1\N=C(c2cccnc2Oc2ccc(Cl)cc2)OC1=O [formula (VII), (Z)-2-(2-(4-chlorophenoxy)-pyridin-3-yl)-4-((dimethyl-amino)methylene)oxazol-5(4H)-one] | > 100 | – | – | – | – | – | – | > 5 µM | –
